Like-named read-outs stand apart in the source and are kept apart here.
How the values were obtained:
cIAP2-BIR3 = cIAP2-BIR3 (Homo sapiens (Human), UniProt Q13489); assay: BIR binding assay (FRET competition), cIAP2 BIR3; conditions: for cIAP2 BIR3 vs BIR2 separation window: fold separation (FS) for cIAP2
XIAP-BIR3 = XIAP-BIR3 (Homo sapiens (Human), UniProt P98170); assay: BIR binding assay (FRET competition), XIAP BIR3; conditions: for XIAP BIR3 vs BIR2 separation window: fold separation (FS) for XIAP
Method in brief: (§1)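 615/665 nm FRET ratio. Compound, His-domain and 200 nM AF647-SMAC peptide incubated 60 min, then 2 nM Eu-W1024 for 30 min. Domains: cIAP1-BIR3 50 nM; XIAP-BIR3 100 nM; cIAP1-BIR2, cIAP2-BIR2 325 nM each. 15-pt 3-fold series; variable-slope IC50.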

cIAP2-BIR2 = cIAP2-BIR2 (Homo sapiens (Human), UniProt Q13489); assay: BIR binding assay (FRET competition), cIAP2 BIR2
Method in brief: as §1

cIAP1-BIR3 = cIAP1-BIR3 (Homo sapiens (Human), UniProt Q13490); assay: BIR binding assay (FRET competition), cIAP1 BIR3; conditions: for cIAP1 BIR3 vs BIR2 separation window: fold separation (FS) for cIAP1
Method in brief: as §1

cIAP1-BIR2 = cIAP1-BIR2 (Homo sapiens (Human), UniProt Q13490); assay: BIR binding assay (FRET competition), cIAP1 BIR2
Method in brief: as §1

XIAP-BIR2 = XIAP-BIR2 (Homo sapiens (Human), UniProt P98170); assay: BIR binding assay (FRET competition), XIAP BIR2; conditions: read-out: XIAP BIR2 (pIC50) (converted)
Method in brief: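 Competitive TR-FRET used His-tagged XIAP-BIR2 (200 nM) and 200 nM AlexaFluor647-labelled AVPIAQKSE SMAC peptide in HEPES buffer pH 7.4 with CHAPS, glycerol and DTT, incubated 60 min before 30 min with 2 nM Eu-W1024. The 615/665 nm ratio from a 15-point, 3-fold series was fit with a four-parameter model for IC50/pIC50.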

[1] = system: Jurkat HIV-luciferase clones; assay: Jurkat latency reversal assay; type: cell-based; conditions: Homo sapiens, 48 h; Jurkat latency reversal assay potency; read-out: Jurkat pEC50 (converted)
Method in brief: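 Compounds are titrated 3-fold over 14 points from 10 μM in duplicate at 0.5% DMSO. Clones C16, 115 and N6, grown with 500 nM EFV, are co-incubated for 48 h at 37° C. Virally driven luciferase is read by luminescence, and EC50 and maximal percent activation versus vehicle come from a four-parameter model.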

Sequence of XIAP-BIR3 (P98170 241-356): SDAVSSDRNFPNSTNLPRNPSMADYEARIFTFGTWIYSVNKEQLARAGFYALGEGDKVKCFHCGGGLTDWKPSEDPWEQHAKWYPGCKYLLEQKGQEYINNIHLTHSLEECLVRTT
Sequence of cIAP1-BIR2 (Q13490 173-257): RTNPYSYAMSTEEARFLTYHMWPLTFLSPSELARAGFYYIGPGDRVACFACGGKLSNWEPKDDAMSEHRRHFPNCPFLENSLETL
Sequence of XIAP-BIR2 (P98170 124-240): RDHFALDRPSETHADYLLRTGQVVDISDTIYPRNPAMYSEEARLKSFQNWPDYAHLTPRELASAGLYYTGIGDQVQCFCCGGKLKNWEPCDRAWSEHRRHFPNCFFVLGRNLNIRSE
Sequence of cIAP2-BIR2 (Q13489 158-242): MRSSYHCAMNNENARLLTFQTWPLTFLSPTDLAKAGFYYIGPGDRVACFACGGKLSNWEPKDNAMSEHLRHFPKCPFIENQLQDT
Sequence of cIAP2-BIR3 (Q13489 238-349): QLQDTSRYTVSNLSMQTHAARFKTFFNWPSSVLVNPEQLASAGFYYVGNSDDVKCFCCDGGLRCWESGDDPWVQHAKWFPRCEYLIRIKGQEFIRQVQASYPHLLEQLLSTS
Sequence of cIAP1-BIR3 (Q13490 253-363): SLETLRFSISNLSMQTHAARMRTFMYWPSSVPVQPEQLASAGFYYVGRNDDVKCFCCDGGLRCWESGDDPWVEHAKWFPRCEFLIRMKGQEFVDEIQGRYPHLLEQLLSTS

SMILES | IC50 (cIAP2-BIR3) | cIAP2 BIR3 vs BIR2 separation window (cIAP2-BIR3) | IC50 (XIAP-BIR3) | XIAP BIR3 vs BIR2 separation window (XIAP-BIR3) | IC50 (cIAP2-BIR2) | IC50 (cIAP1-BIR3) | cIAP1 BIR3 vs BIR2 separation window (cIAP1-BIR3) | IC50 (cIAP1-BIR2) | IC50 (XIAP-BIR2; FRET competition binding) | EC50 [1] | IC50 (XIAP-BIR2; FRET competition)
C[C@@H]1CN(CC(=O)N2CC(C)(C)c3[nH]c(=O)c(Cc4ccc(F)cc4)cc32)[C@@H](CN2CCO[C@H](C(=O)NCCCCNC(=O)[C@@H]3CN(C[C@H]4CN[C@H](C)CN4CC(=O)N4CC(C)(C)c5[nH]c(=O)c(Cc6ccc(F)cc6)cc54)CCO3)C2)CN1 [Example 126, (2S,2'S)-N,N′-(butane-1,4-diyl)bis(4-(((2R,5R)-1-(2-(6-(4-fluorobenzyl)-3,3-dimethyl-5-oxo-2,3,4,5-tetrahydro-1H-pyrrolo[3,2-b]pyridin-1-yl)-2-oxoethyl)-5-methylpiperazin-2-yl)methyl)morpholine-2-carboxamide)] | 0.00794 to 0.0158 µM | +++ (10,000>FS>1,000) | 0.00794 to 0.0158 µM | ++++ (FS>10,000) | 1 to 3.16 µM | 0.00794 to 0.0158 µM | +++ (10,000>FS>1,000) | 1 to 3.16 µM | 10 to 51.3 µM | 0.0631 to 0.316 µM | 
C[C@@H]1CN(CC(=O)N2CC(C)(C)c3[nH]c(=O)c(Cc4ccc(F)cc4)cc32)[C@@H](CN2CCO[C@H](C(=O)N[C@H]3CC[C@H](NC(=O)[C@@H]4CN(C[C@H]5CN[C@H](C)CN5CC(=O)N5CC(C)(C)c6[nH]c(=O)c(Cc7ccc(F)cc7)cc65)CCO4)CC3)C2)CN1 [Example 92, (2S,2'S)-N,N′-((1S,4S)-cyclohexane-1,4-diyl)bis(4-(((2R,5R)-1-(2-(6-(4-fluorobenzyl)-3,3-dimethyl-5-oxo-2,3,4,5-tetrahydro-1H-pyrrolo[3,2-b]pyridin-1-yl)-2-oxoethyl)-5-methylpiperazin-2-yl)methyl)morpholine-2-carboxamide)] | 0.00794 to 0.0158 µM | +++ (10,000>FS>1,000) | 0.00794 to 0.0158 µM | ++++ (FS>10,000) | 1 to 3.16 µM | 0.00138 to 0.00794 µM | +++ (10,000>FS>1,000) | 1 to 3.16 µM | 10 to 51.3 µM | 0.0126 to 0.0631 µM | 
C[C@@H]1CN(CC(=O)N2CC(C)(C)c3[nH]c(=O)c(Cc4ccc(F)cc4)cc32)[C@@H](CN2CCO[C@H](C(=O)NCC(O)CNC(=O)[C@@H]3CN(C[C@H]4CN[C@H](C)CN4CC(=O)N4CC(C)(C)c5[nH]c(=O)c(Cc6ccc(F)cc6)cc54)CCO3)C2)CN1 [Compound 137, (2S,2′S)-N,N′-(2-hydroxypropane-1,3-diyl)bis(4-(((2R,5R)-1-(2-(6-(4-fluorobenzyl)-3,3-dimethyl-5-oxo-2,3,4,5-tetrahydro-1H-pyrrolo[3,2-b]pyridin-1-yl)-2-oxoethyl)-5-methylpiperazin-2-yl)methyl)morpholine-2-carboxamide)] | 0.00794 to 0.0158 µM | +++ (10,000>FS>1,000) | 0.0158 to 0.0316 µM | ++++ (FS>10,000) | 1 to 3.16 µM | 0.00794 to 0.0158 µM | +++ (10,000>FS>1,000) | 1 to 3.16 µM |  | 0.0631 to 0.316 µM | 10 to 51.3 µM
C[C@@H]1CN(CC(=O)N2CC(C)(C)c3[nH]c(=O)c(Cc4ccc(F)cc4)cc32)[C@@H](CN2CCC(CN(C)C(=O)Cc3ccc(C(=O)N(C)CC4CCN(C[C@H]5CN[C@H](C)CN5CC(=O)N5CC(C)(C)c6[nH]c(=O)c(Cc7ccc(F)cc7)cc65)CC4)cc3)CC2)CN1 [Example 97, N-((1-(((2R,5R)-1-(2-(6-(4-fluorobenzyl)-3,3-dimethyl-5-oxo-2,3,4,5-tetrahydro-1H-pyrrolo[3,2-b]pyridin-1-yl)-2-oxoethyl)-5-methylpiperazin-2-yl)methyl)piperidin-4-yl)methyl)-4-(2-(((1-(((2R,5R)-1-(2-(6-(4-fluorobenzyl)-3,3-dimethyl-5-oxo-2,3,4,5-tetrahydro-1H-pyrrolo[3,2-b]pyridin-1-yl)-2-oxoethyl)-5-methylpiperazin-2-yl)methyl)piperidin-4-yl)methyl)(methyl)amino)-2-oxoethyl)-N-methylbenzamide] | 0.00138 to 0.00794 µM | +++ (10,000>FS>1,000) | 0.00794 to 0.0158 µM | ++++ (FS>10,000) | 3.16 to 10 µM | 0.00138 to 0.00794 µM | ++++ (FS>10,000) | 1 to 3.16 µM | 10 to 51.3 µM | 0.0631 to 0.316 µM | 
C[C@@H]1CN(CC(=O)N2CC(C)(C)c3[nH]c(=O)c(Cc4ccc(F)cc4)cc32)[C@@H](CN2CCO[C@H](COCC#CC#CCOC[C@@H]3CN(C[C@H]4CN[C@H](C)CN4CC(=O)N4CC(C)(C)c5[nH]c(=O)c(Cc6ccc(F)cc6)cc54)CCO3)C2)CN1 [Example 63, 1,1′-(2,2′-((3R,3′R,6R,6′R)-(((2S,2'S)-((hexa-2,4-diyne-1,6-diylbis(oxy))bis(methylene))bis(morpholine-2,4-diyl))bis(methylene))bis(3-methylpiperazine-6,1-diyl))bis(acetyl))bis(6-(4-fluorobenzyl)-3,3-dimethyl-1,2,3,4-tetrahydro-5H-pyrrolo[3,2-b]pyridin-5-one)] | 0.0158 to 0.0316 µM |  | 0.0158 to 0.0316 µM |  | 3.16 to 10 µM | 0.00794 to 0.0158 µM |  | 1 to 3.16 µM | 10 to 51.3 µM | 0.0126 to 0.0631 µM | 
C[C@@H]1CN(CC(=O)N2CC(C)(C)c3[nH]c(=O)c(Cc4ccc(F)cc4)cc32)[C@@H](CN2CCO[C@@H](COCCCCOC[C@H]3CN(C[C@H]4CN[C@H](C)CN4CC(=O)N4CC(C)(C)c5[nH]c(=O)c(Cc6ccc(F)cc6)cc54)CCO3)C2)CN1 [Example 113, 1,1′-(2,2′-((3R,3′R,6R,6′R)-(((2R,2′R)-((butane-1,4-diylbis(oxy))bis(methylene))bis(morpholine-2,4-diyl))bis(methylene))bis(3-methylpiperazine-6,1-diyl))bis(acetyl))bis(6-(4-fluorobenzyl)-3,3-dimethyl-1,2,3,4-tetrahydro-5H-pyrrolo[3,2-b]pyridin-5-one)] | 0.00794 to 0.0158 µM | +++ (10,000>FS>1,000) | 0.0158 to 0.0316 µM | ++++ (FS>10,000) | 3.16 to 10 µM | 0.00794 to 0.0158 µM | +++ (10,000>FS>1,000) | 3.16 to 10 µM | 10 to 51.3 µM | 0.00049 to 0.0126 µM | 
C[C@@H]1CN(CC(=O)N2CC(C)(C)c3[nH]c(=O)c(Cc4ccc(F)cc4)cc32)[C@@H](CN2CCC(CN(C)C(=O)Cc3cccc(C(=O)N(C)CC4CCN(C[C@H]5CN[C@H](C)CN5CC(=O)N5CC(C)(C)c6[nH]c(=O)c(Cc7ccc(F)cc7)cc65)CC4)c3)CC2)CN1 [Example 98, N-((1-(((2R,5R)-1-(2-(6-(4-fluorobenzyl)-3,3-dimethyl-5-oxo-2,3,4,5-tetrahydro-1H-pyrrolo[3,2-b]pyridin-1-yl)-2-oxoethyl)-5-methylpiperazin-2-yl)methyl)piperidin-4-yl)methyl)-3-(2-(((1-(((2R,5R)-1-(2-(6-(4-fluorobenzyl)-3,3-dimethyl-5-oxo-2,3,4,5-tetrahydro-1H-pyrrolo[3,2-b]pyridin-1-yl)-2-oxoethyl)-5-methylpiperazin-2-yl)methyl)piperidin-4-yl)methyl)(methyl)amino)-2-oxoethyl)-N-methylbenzamide] | 0.00138 to 0.00794 µM | +++ (10,000>FS>1,000) | 0.00794 to 0.0158 µM | ++++ (FS>10,000) | 10 to 51.3 µM | 0.00138 to 0.00794 µM | +++ (10,000>FS>1,000) | 1 to 3.16 µM | 10 to 51.3 µM | 0.0631 to 0.316 µM | 
